# Results published in patent publication US6416949B1, “Method of synthesizing diverse collections of oligomers” (Affymax, Inc., priority 1991, dated 2002).
# Legend:
# Monoclonal antibody 3E7 [1] = conditions: solution assay, MAb 3E7; read-out: equilibrium binding constant (Kd); cited from earlier work
# Monoclonal antibody 3E7 [2] = assay: staining of peptide beads with fluorescently labeled antibody 3E7 and FACS sorting; type: binding; conditions: peptide on oligonucleotide-tagged beads
# Procedure: The beads coupled with the 95 mer and YGGFL were mixed with the beads that were coupled to the 110 mer and F in the ratio of 1:20. Thus, 0.1 mg of 95 mer/YGGFL beads (2 million beads) were mixed with 2.0 mg of the 110 mer/Phe beads (40 million beads). The mixture was suspended in blocking buffer (PBS, 1% BSA, and 0.05% Tween-20) and incubated at room temperature for 1 hr. The beads were next pelleted by centrifugation and resuspended in a solution of an FITC-labeled monoclonal antibody 3E7 that binds the peptide YGGFL (1 μg/mL). The suspension was incubated 0.5 hr on ice and then centrifuged to isolate the bead pellet.
# The beads were resuspended in PBS for delivery into the fluorescence activated cell sorting (FACS) instrument (Becton Dickinson FACSORT Plus). Beads that had bound to the fluorescently labeled antibody were identified by their acquired fluorescence, and fluorescent beads were isolated by sorting into PCR tubes. One, ten, or one hundred fluorescent beads were sorted into each PCR tube. […]
# The beads were resuspended in PBS for delivery into the fluorescence activated cell sorting (FACS) instrument (Becton Dickinson FACSORT Plus). Beads that had bound to the fluorescently labeled antibody were identified by their acquired fluorescence (see FIG. 10), and homogeneous samples of either fluorescent or non-fluorescent beads were isolated by sorting into PCR tubes. […]
# Monoclonal antibody 3E7 [3] = assay: magnetic selection of peptide beads by microbead-conjugated 3E7, analysed by flow cytometry; type: binding; conditions: 16 hr incubation at 4 degrees C in PBS, high strength magnet
# Procedure: After a 16 hr incubation at 4 degrees C, beads which bind the 3E7 antibody are selected using a high strength magnet. The selected beads are then analyzed by flow cytometry.
substance,measurement,setting,value
"pentapeptide L-Tyr-Gly-Gly-L-Phe-L-Leu, ligand of monoclonal antibody 3E7 [YGGFL]",Kd,Monoclonal antibody 3E7 [1],6.6 nM
same,binding of the peptide by fluorescently labeled antibody 3E7,Monoclonal antibody 3E7 [2],high affinity
same,selection of peptide-bearing beads by 3E7 antibody,Monoclonal antibody 3E7 [3],only beads displaying the peptide YGGFL are selected
